Results published in US5712273A, “Amino acid derivatives, processes for the manufacture thereof and pharmaceutical compositions (II) containing these compounds” (Boehringer Ingelheim GmbH, priority 1994, dated 1998).
Where two headings read alike, the source gives them in different places.

Columns and labels:
[1] = target: T1, NK1-receptor (substance P-receptor) (Homo sapiens, UniProt P25103); assay: NK1-receptor (substance P-receptor) affinity: displacement of 125I-labelled substance P on IM-9 cells; type: binding
T1 construct: cloned NK1 -receptors on human lymphoblastoma cells (IM-9); endogenous in cells; host or cells: IM-9 human lymphoblastoma cells
Method: (§1) The receptor affinity at the NK1 -receptor (substance P-receptor) was determined with cloned NK1 -receptors on human lymphoblastoma cells (IM-9), whereby the displacement of ^125 I-labelled substance P is measured. The NK2 -binding test is carried out on transfixed A20 cells which represent the human NK2 receptor. The displacement of ^125 I-BN-neusolinine A is determined.

human NK2 receptor = target: T2, human NK2 receptor (Homo sapiens, UniProt P21452); assay: NK2-binding test: displacement of 125I-labelled ligand on A20 cells which represent the human NK2 receptor; conditions: transfixed A20 cells (human NK2 receptor); displacement of 125I-BN-neusolinine A
T2 construct: expressed in transfected cells; host or cells: A20 cells
T2 sequence (P21452 1-398): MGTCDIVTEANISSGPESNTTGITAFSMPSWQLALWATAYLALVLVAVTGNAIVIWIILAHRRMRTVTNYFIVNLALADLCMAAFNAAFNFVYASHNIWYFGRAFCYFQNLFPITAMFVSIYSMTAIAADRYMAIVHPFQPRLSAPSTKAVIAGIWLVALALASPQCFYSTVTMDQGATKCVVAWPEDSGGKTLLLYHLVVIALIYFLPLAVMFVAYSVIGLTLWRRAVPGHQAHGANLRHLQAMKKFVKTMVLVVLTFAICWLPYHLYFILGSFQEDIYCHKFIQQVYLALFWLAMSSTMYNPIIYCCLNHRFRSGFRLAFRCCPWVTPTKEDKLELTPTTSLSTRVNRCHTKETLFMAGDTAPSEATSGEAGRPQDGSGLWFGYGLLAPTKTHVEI
Method: as §1

[2] = cloned NK1-receptors on human lymphoblastoma cells (IM-9), displacement of 125I-labelled substance P, read-out: NK1 IC50

T1 sequence (P25103 whole entry): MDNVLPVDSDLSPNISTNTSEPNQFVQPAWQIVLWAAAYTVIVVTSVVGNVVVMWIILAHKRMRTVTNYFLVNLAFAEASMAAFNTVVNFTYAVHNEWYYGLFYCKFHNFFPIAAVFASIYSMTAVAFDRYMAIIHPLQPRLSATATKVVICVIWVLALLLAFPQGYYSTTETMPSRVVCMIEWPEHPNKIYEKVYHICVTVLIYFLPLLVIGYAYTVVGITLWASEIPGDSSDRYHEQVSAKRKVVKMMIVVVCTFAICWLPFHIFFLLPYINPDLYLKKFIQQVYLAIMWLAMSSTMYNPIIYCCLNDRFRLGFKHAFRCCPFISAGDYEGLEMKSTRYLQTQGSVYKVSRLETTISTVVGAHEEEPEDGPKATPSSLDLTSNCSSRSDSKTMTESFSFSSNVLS

Row | SMILES | IC50 [1, 2] [nM] | IC50 (human NK2 receptor) [nM] | IC50 [1] [nM]
1 | CN(Cc1ccccc1)C(=O)[C@H](Cc1ccc2ccccc2c1)NC(=O)[C@@H]1C[C@@H](O)CN1C(=O)C1C(=O)C2(C)CCC1C2(C)C (stereo partly drawn) [Compound 27] | 0.5 | 450 | 
2 | Cc1ccccc1CN(C)C(=O)[C@H](Cc1c[nH]c2ccccc12)NC(=O)[C@@H]1CCCN1C(=O)C1C(=O)C2(C)CCC1C2(C)C (stereo partly drawn) [Compound 47] | 3.2 | 57 | 
3 | COc1ccccc1N1CCN(C(=O)[C@H](Cc2ccc3ccccc3c2)NC(=O)[C@@H]2C[C@@H](O)CN2C(=O)C23CCC(C)(C(=O)O2)C3(C)C)CC1 (stereo partly drawn) [Compound 24] | 3.3 | 1240 | 
4 | CCc1ccccc1CN(C)C(=O)[C@H](Cc1c[nH]c2ccccc12)NC(=O)[C@@H]1C[C@@H](O)CN1C(=O)C1C(=O)C2(C)CCC1C2(C)C (stereo partly drawn) [Compound 44] | 5.1 | 39 | 
5 | CC12CCC(C(C(=O)N3C[C@H](O)C[C@H]3C(=O)N[C@@H](Cc3ccc4ccccc4c3)C(=O)N3CCN(c4ccccc4[N+](=O)[O-])CC3)C1=O)C2(C)C (stereo partly drawn) [Compound 11] | 3.2 |  | 
6 | Cc1ccccc1CN(C)C(=O)[C@H](Cc1cn(C)c2ccccc12)NC(=O)[C@@H]1C[C@@H](O)CN1C(=O)C1C(=O)C2(C)CCC1C2(C)C (stereo partly drawn) [Compound 45] | 4.9 | 59 | 
7 | CC12CCC(C(C(=O)N3C[C@H](O)C[C@H]3C(=O)N[C@@H](Cc3ccc4ccccc4c3)C(=O)N3CCN(c4ccccn4)CC3)C1=O)C2(C)C (stereo partly drawn) [Compound 6] | 45 |  | 
8 | COc1ccccc1CN1C(=O)C(NC(=O)[C@@H]2C[C@@H](O)CN2C(=O)C2C(=O)C3(C)CCC2C3(C)C)Cc2cc(OC)c(OC)cc21 (stereo partly drawn) [Compound 28] | 23 | 1500 | 
9 | CC12CCC(C(C(=O)N3C[C@H](O)C[C@H]3C(=O)N[C@@H](Cc3ccc4ccccc4c3)C(=O)N3CCN(c4ccccc4O)CC3)C1=O)C2(C)C (stereo partly drawn) [Compound 12] | 5.6 |  | 
10 | CN(Cc1ccccc1Cl)C(=O)[C@H](Cc1c[nH]c2ccccc12)NC(=O)[C@@H]1C[C@@H](O)CN1C(=O)C1C(=O)C2(C)CCC1C2(C)C (stereo partly drawn) [Compound 42] | 1.2 | 54 | 
11 | COc1ccc(N2CCN(C(=O)[C@H](Cc3ccc4ccccc4c3)NC(=O)[C@@H]3C[C@@H](O)CN3C(=O)C3C(=O)C4(C)CCC3C4(C)C)CC2)c(C)c1 (stereo partly drawn) [Compound 5] | 11 | 117 | 
12 | COc1ccccc1N1CCN(C(=O)[C@H](Cc2ccc3ccccc3c2)NC(=O)[C@@H]2C[C@@H](O)CN2C(=O)C2CC3CCC2(OC)CC3)CC1 (stereo partly drawn) [Compound 23] | 14 | 140 | 
13 | CC(C)c1ccccc1N1CCN(C(=O)[C@H](Cc2ccc3ccccc3c2)NC(=O)[C@@H]2C[C@@H](O)CN2C(=O)C2C(=O)C3(C)CCC2C3(C)C)CC1 (stereo partly drawn) [Compound 4] | 5 | 110 | 
14 | Cc1ccccc1CN(C)C(=O)[C@H](Cc1c[nH]c2ccccc12)NC(=O)[C@@H]1C[C@@H](O)CN1C(=O)C1C(=O)C2(C)CCC1C2(C)C (single isomer, unassigned) [Compound 2] | 3.6 | 21 | 
15 | CCOC(=O)c1ccccc1N1CCN(C(=O)[C@H](Cc2ccc3ccccc3c2)NC(=O)[C@@H]2C[C@@H](O)CN2C(=O)C2C(=O)C3(C)CCC2C3(C)C)CC1 (stereo partly drawn) [Compound 7] | 0.45 | 44 | 
16 | CCOc1ccccc1N1CCN(C(=O)[C@H](Cc2ccc3ccccc3c2)NC(=O)[C@@H]2C[C@@H](O)CN2C(=O)C2C(=O)C3(C)CCC2C3(C)C)CC1 (stereo partly drawn) [Compound 15] | 3.2 | 38 | 
17 | COc1ccccc1N1CCN(C(=O)[C@H](Cc2ccc3ccccc3c2)NC(=O)[C@@H]2C[C@@H](O)CN2C(=O)C2C(=O)C3(C)CCC2C3(C)C)CC1 (single isomer, unassigned) [Compound 1] | 3.1 | 21 | 

Row | SMILES | IC50 [1, 2] [nM] | IC50 (human NK2 receptor) [nM] | IC50 [1] [nM]
18 | COc1ccccc1N1CCN(C(=O)[C@H](Cc2ccc3ccccc3c2)NC(=O)[C@@H]2C[C@@H](O)CN2C(=O)C2CCCCC2=O)CC1 (stereo partly drawn) [Compound 25] | 18 | 880 | 
19 | Cc1ccccc1N1CCN(C(=O)[C@H](Cc2ccc3ccccc3c2)NC(=O)[C@@H]2C[C@@H](O)CN2C(=O)C2C(=O)C3(C)CCC2C3(C)C)CC1 (stereo partly drawn) [Compound 3] | 3 | 65 | 
20 | CC12CCC(C(C(=O)N3C[C@H](O)C[C@H]3C(=O)N[C@@H](Cc3ccc4ccccc4c3)C(=O)N3CCN(c4ccccc4C#N)CC3)C1=O)C2(C)C (stereo partly drawn) [Compound 16] | 0.7 | 19 | 
21 | CSc1ccccc1N1CCN(C(=O)[C@H](Cc2ccc3ccccc3c2)NC(=O)[C@@H]2C[C@@H](O)CN2C(=O)C2C(=O)C3(C)CCC2C3(C)C)CC1 (stereo partly drawn) [Compound 14] | 3.1 | 240 | 
22 | COc1ccccc1N1CCN(C(=O)[C@H](Cc2ccc3ccccc3c2)NC(=O)[C@@H]2C[C@@H](O)CN2S(=O)(=O)CC23CCC(CC2=O)C3(C)C)CC1 (stereo partly drawn) [Compound 20] | 26 | 350 | 
23 | COc1ccccc1N1CCN(C(=O)[C@H](Cc2ccc3ccccc3c2)NC(=O)[C@@H]2C[C@@H](O)CN2C(=O)C2C3CCC(C)(C2O)C3(C)C)CC1 (stereo partly drawn) [Compound 18] | 8 | 16 | 
24 | CC12CCC(C(C(=O)N3C[C@H](O)C[C@H]3C(=O)N[C@@H](Cc3ccc4ccccc4c3)C(=O)N3CCN(C(c4ccc(F)cc4)c4ccc(F)cc4)CC3)C1=O)C2(C)C (stereo partly drawn) [Compound 10] | 200 |  | 
25 | CC12CCC(C(C(=O)N3C[C@H](O)C[C@H]3C(=O)N[C@@H](Cc3ccc4ccccc4c3)C(=O)N3CCN(C4CCCCC4)CC3)C1=O)C2(C)C (stereo partly drawn) [Compound 9] | 17 |  | 
26 | COc1ccccc1N1CCN(C(=O)[C@H](Cc2ccc3ccccc3c2)NC(=O)[C@@H]2C[C@@H](O)CN2C(=O)C2C3CC4C(C3=O)C42)CC1 (stereo partly drawn) [Compound 17] | 7 | 93 | 
27 | CN(Cc1ccccc1Br)C(=O)[C@H](Cc1c[nH]c2ccccc12)NC(=O)[C@@H]1C[C@@H](O)CN1C(=O)C1C(=O)C2(C)CCC1C2(C)C (stereo partly drawn) [Compound 43] | 1.2 | 21 | 
28 | COc1ccccc1N1CCN(C(=O)[C@H](Cc2ccc3ccccc3c2)NC(=O)[C@@H]2C[C@@H](O)CN2C(=O)C2CC3C=CC2(OC)CC3)CC1 (stereo partly drawn) [Compound 19] | 26 | 600 | 
29 | COc1ccccc1N1CCN(C(=O)[C@H](Cc2ccc3ccccc3c2)NC(=O)[C@@H]2C[C@@H](O)CN2C(=O)C2CCCCC2O)CC1 (stereo partly drawn) [Compound 21] | 20 | 130 | 
30 | COc1ccccc1N1CCN(C(=O)[C@H](Cc2ccc3ccccc3c2)NC(=O)[C@@H]2C[C@@H](O)CN2C(=O)C2C(O)C3CCN2CC3)CC1 (stereo partly drawn) [Compound 22] |  | 1300 | 25
31 | CC12CCC(C(C(=O)N3C[C@H](O)C[C@H]3C(=O)N[C@@H](Cc3ccc4ccccc4c3)C(=O)N3CCN(c4ccccc4Cl)CC3)C1=O)C2(C)C (stereo partly drawn) [Compound 8] | 3 | 18 | 
32 | CC12CCC(C(C(=O)N3C[C@H](O)C[C@H]3C(=O)N[C@@H](Cc3ccc4ccccc4c3)C(=O)N3CCN(c4ccc5ccccc5c4)CC3)C1=O)C2(C)C (stereo partly drawn) [Compound 13] | 105 | 780 | 
33 | CC12CCC(C(C(=O)N3C[C@H](O)C[C@H]3C(=O)N[C@@H](Cc3c[nH]c4ccccc34)C(=O)N3CCN(c4ccccc4C#N)CC3)C1=O)C2(C)C (stereo partly drawn) [Compound 26] | 28 |  | 
